This is an account of results in publication PMC5374710, “Discovery of the first dual GSK3β inhibitor/Nrf2 inducer. A new multitarget therapeutic strategy for Alzheimer’s disease” (Scientific Reports, 2017).

This assay has as its system HO-1. Briefly: HO-1 expression in AREc32 cells after scramble or GSK3β siRNA (western blot). Format: cell-based, human. The note with it: 10 μM, 24 h. The procedure: To further evaluate the potential relationship between GSK3β inhibition and the Nrf2 induction properties we used two different approaches. […] Cells were treated with compound 5m at increasing concentrations alone or in presence of Li (10 mM) during 24 h and thereafter, luciferase activity was evaluated. […] Secondly, to corroborate the independence of the Nrf2 induction properties of our derivatives from their GSK3β inhibitory properties, we used GSK3β knock down experimental conditions using siRNA. […] After knockdown of GSK3β, AREc32 cells were incubated with compound 5m (10 μM) during 24 h (Fig. 4B). Subsequently, luciferase activity and HO-1 expression were analyzed. […] Similar results were obtained when HO-1 expression was analyzed (Fig. 4D), compound 5m increased HO-1 expression 3.9 times after scramble treatment and 3.5 times after knockdown of GSK3β showing no statistical differences between both conditions. […]
Figure 4 Nrf2 induction properties are independent of the GSK3β inhibitory activity. […] (D) HO-1 expression induced by compound 5m (10 μM) measured at the same experimental conditions used previously. Values are expressed as mean ± SEM of three independent experiments in duplicate. ^###p < 0.001; ^##p < 0.01; ^#p < 0.05 compared to the correspondent basal conditions. […]

For `Cc1[nH]nc2c1C(c1ccc(Br)cc1)C(C#N)=C(N)O2` (centres unmarked) [Compound 5m, 6-Amino-4-(4-bromophenyl)-3-methyl-2,4-dihydropyrano[2,3-c]pyrazole-5-carbonitrile], the HO-1 expression increase reads like this: (after knockdown of GSK3β) 3.5 times; (after scramble treatment) 3.9 times.
